Laboratory results as given in article PMC7493962, “Structure-based inhibitors targeting the alpha-helical domain of the Spiroplasma melliferum histone-like HU protein” (Scientific Reports, 2020).
Values after ≈ are worked out from the molar mass of the structure shown. Like-named read-outs stand apart in the source and are kept apart here.

Tests used:
[1] = biological target: HUSpm (Spiroplasma melliferum, UniProt A0ABX5UAT3); assay: biochemical; type: binding
Procedure: In silico screening by molecular docking and filtering was performed to identify compounds interacting with the core region of the DNA-binding saddle-like domain of HU proteins (Fig. 1A) previously characterized in[35]. High-resolution spatial structure of HUSpm (PDB ID 5L8Z[9]) was chosen as a target for virtual screening of one million compounds from the Vitas-M laboratory library collection (https://vitasmlab.biz/). The screening (see "Methods" for a description) identified a set of five compounds (Supplementary Table S1), further evaluation of which was carried out by an electromobility shift assay (EMSA) performed as described in[5]. In the assay, formation of DNA–protein complexes retards migration of dye-labeled DNA-duplexes during non-denaturing PAGE that gives a shifted fluorescent band. The presence of an inhibitor prevents complex formation and corresponding band shifting.
All oligonucleotides were synthesized by Evrogen (Moscow, Russia).
For 48 bp DNA duplexes, 8% PAAG was used.

[2] = biological target: HUMgal (Mycoplasmoides gallisepticum, UniProt A0A0F6CKR5); assay: EMSA, inhibition of HUMgal DNA binding; set-up: species or system Mycoplasma gallisepticum
Sequence of HUMgal (A0A0F6CKR5 entry or part of it): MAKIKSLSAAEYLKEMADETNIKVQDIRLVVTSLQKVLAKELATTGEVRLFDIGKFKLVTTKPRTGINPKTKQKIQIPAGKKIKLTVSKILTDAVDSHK
Procedure: (§3) One protein was from mycoplasma M. gallisepticum (HUMgal) and another was HUα-homodimer from E. coli (HUEc). […] To assess the effect of the three BDFs on DNA binding properties of the three HU proteins, increasing concentrations of inhibitors were mixed with preset DNA–protein complexes and EMSA was performed and quantified as described in the Methods.
(§4) Binding of HU proteins to DNA was analyzed by electrophoretic mobility shift assays (EMSA) performed as described previously[5]. Different amounts of the HU proteins (30 nM HUSpm and HUSpm_K35T, 60 nM HUMgal and HUEc, 100 nM HUSpm_K80A and HUSpm_K88A, and 200 mM HUSpm_R57A) were incubated with DNA (10 nM) in 10 μl of the binding buffer (20 mM Tris–HCl pH 8.0, 7% glycerol, and 150 mM of NaCl) for 10 min. Then, the samples were loaded to pre-runned (125 V, 30 min) 10% non-denaturing PAAG, buffered with 100 mM Tris–borate, and electrophoretically separated (125 V, 90 min). […] Gels were visualized using BIO RAD Faros FX Molecular Imager (532 nm EX, 605 nm BP), and quantification was performed using Quantity One software.
(§5) To evaluate the effects of inhibitors, 1 μl volumes of serial dilutions of tested compounds or DMSO were added to the preformed protein-DNA complexes. After five minute incubation, the assay was carried out as described above. Inhibition curves and IC50 values were obtained using GraphPad Prism 5 software.

[3] = system: HUSpm (Spiroplasma melliferum), PDB:5L8Z_1; assay: EMSA; settings: EMSA: 20 mM Tris-HCl pH 8.0, 150 mM NaCl, 7% glycerol, 10 nM DNA, 10 min, temperature not stated; NMR: 50 mM sodium phosphate pH 7.2, 0.1 mM NaN3, 30 C
[4] = system: HUSpm mutants (F14A, F29A, F31A); assay: EMSA, inhibitor evaluation on HUSpm mutants F14A, F29A, F31A; type: binding, Spiroplasma melliferum; settings: data not shown
[5] = system: M. gallisepticum S6; assay: Broth micro-dilution test, MIC; type: cell-based, Mycoplasma gallisepticum; settings: M. gallisepticum growth in culture, phenol red colour change, three determinations
Source text: (§1) Since HU proteins are known to be essential for mycoplasma cell viability, [32], we assessed the effects of the inhibitors on M. gallisepticum and S. melliferum growth in culture. […] The growth of metabolizing organisms causes a change in the pH of the medium leading to a visible color change due to the presence of phenol red in the medium. When the growth of bacteria is inhibited, color change is not observed. The MIC is the lowest inhibitor concentration that prevents the color change at the time when the color change has developed in control (untreated) samples.
(§2) The S. melliferum KC3 strain was kindly provided by Prof. G. Wroblewsky of the University of Rennes, France. The M. gallisepticum S6 strain was provided by Prof. S. N. Borkhsenius, Institute of Cytology, St. Petersburg, Russian Academy of Science. The bacteria were cultivated as described in[62] without any specific aeration in covered flasks, for less than five passage. M. gallisepticum S6 was cultivated in a modified Edward’s liquid medium (tryptose (20 g/l), Tris (3 g/l), NaCl (5 g/l), KCl (1.3 g/l), yeast dialysate (5%), heat inactivated (56 °C–30 min) horse serum (6%), glucose (0.5%) and penicillin 300U/ml, pH 7.5) at 37 °C for 20 h after 1:100 dilution. […]

[6] = system: S. melliferum KC3; assay: Broth micro-dilution test, MIC; type: cell-based, Spiroplasma melliferum; settings: S. melliferum growth in culture, phenol red colour change, three determinations
Source text: as §1, §2

[7] = Solubility (stated in words); type: physicochemical; settings: water
[8] = biological target: HUSpm_R57A (Spiroplasma melliferum, UniProt A0ABX5UAT3, R57A); settings: read-out: IC50 against HUSpm mutant HUSpm_R57A; EMSA with DS24a; mean ± SD from three runs; 200 mM HUSpm_R57A as printed
Procedure: (§6) Binding of HU proteins to DNA was analyzed by electrophoretic mobility shift assays (EMSA) performed as described previously[5]. Different amounts of the HU proteins (30 nM HUSpm and HUSpm_K35T, 60 nM HUMgal and HUEc, 100 nM HUSpm_K80A and HUSpm_K88A, and 200 mM HUSpm_R57A) were incubated with DNA (10 nM) in 10 μl of the binding buffer (20 mM Tris–HCl pH 8.0, 7% glycerol, and 150 mM of NaCl) for 10 min. Then, the samples were loaded to pre-runned (125 V, 30 min) 10% non-denaturing PAAG, buffered with 100 mM Tris–borate, and electrophoretically separated (125 V, 90 min). […] Gels were visualized using BIO RAD Faros FX Molecular Imager (532 nm EX, 605 nm BP), and quantification was performed using Quantity One software. The dissociation constants (Kd) were calculated as described earlier[16].
as §5

[9] = biological target: HUSpm_K80A (Spiroplasma melliferum, UniProt A0ABX5UAT3, K80A); settings: read-out: IC50 against HUSpm mutant HUSpm_K80A; EMSA with DS24a; mean ± SD from three runs; 100 nM protein
Procedure: as §6, §5

[10] = biological target: HUSpm_K88A (Spiroplasma melliferum, UniProt A0ABX5UAT3, K88A); settings: read-out: IC50 against HUSpm mutant HUSpm_R88A (so in the source); EMSA with DS24a; mean ± SD from three runs; 100 nM protein
Procedure: as §6, §5

[11] = biological target: HUSpm_K35T (Spiroplasma melliferum, UniProt A0ABX5UAT3, K35T)
Procedure: Thus, previously obtained HUSpm mutants (F14A, F29A, F31A and K35T) were employed for inhibitor evaluation.
as §6, §5

[12] = biological target: T1, HUEc (HUα-homodimer from E. coli) (Escherichia coli, UniProt P0ACF0); assay: biochemical; type: binding
T1 construct: made in house
T1 sequence (P0ACF0 whole entry): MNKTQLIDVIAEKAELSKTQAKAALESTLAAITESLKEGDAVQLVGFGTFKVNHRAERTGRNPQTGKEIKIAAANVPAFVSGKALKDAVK
Procedure: as §3, §4, §5

[13] = EMSA with DS24a duplex, average±SD from three runs, read-out: IC50, half-maximal inhibitory concentration of HUSpm-DNA complex formation
[14] = EMSA with DS24a, average ± SD from three runs, read-out: IC50, inhibition of HUMgal DNA-binding
[15] = EMSA with DS48 duplex, average±SD, n=3, read-out: IC50, half-maximal inhibitory concentration of HUSpm-DNA complex formation

4,5'-[4,4'-(9H-fluorene-9,9-diyl)bis(4,1-phenylene)]-bis(oxy)-bis(oxomethylene)-bis[2-(m-tolylcarbamoyl)-benzoic acid] [BDF5]
IC50 [1, 13]: 6.3 ± 0.7 µM
IC50 [2, 14]: 5.9 ± 0.8 µM

AGTCTAGAGTGCAGTTGAGTCCTTGCTACGACGGATCCCTTAGGTCAG / CTGACCTAAGGGATCCGTCGTAGCAAGAGACTCAACTGCACTCTAGACT [A1 bulge (A1)]
Kd [3]: 0.0025 µM

O=C(Oc1ccc(C2(c3ccc(OC(=O)c4ccc(C(=O)O)c(C(=O)O)c4)cc3)c3ccccc3-c3ccccc32)cc1)c1ccc(C(=O)O)c(C(=O)O)c1 [BDF1]
Inhibition of HUSpm-DNA binding, first round of EMSA ([1]; 100 μM compound, DS48): inhibits HUSpm-DNA binding
IC50 [1, 13]: 6.2 ± 0.5 µM
IC50 [1, 15]: 6.5 ± 0.9 µM

O=C(Oc1ccc(C2(c3ccc(OC(=O)c4ccc(C(=O)O)c(C(=O)O)c4)cc3)c3ccccc3-c3ccccc32)cc1)c1ccc(C(=O)O)c(C(=O)O)c1 [BDF4, 4,4'-[4,4'-(9H-fluorene-9,9-diyl)-bis(4,1-phenylene)]-bis(oxy)-bis(oxomethylene)diphthalic acid]
IC50 ([1]; read-out: IC50, half-maximal inhibitory concentration of HUSpm-DNA complex formation, EMSA with DS24a duplex, average±SD from three runs): 5.6 ± 0.8 µM
IC50 [2, 14]: 5 ± 0.6 µM
Effect of other mutations (F14A, F29A, F31A) on sensitivity to inhibitor [4]: did not cause any significant effects
MIC ([5]; Mycoplasmoides gallisepticum, S6, read-out: MIC, minimal inhibitory concentration): 40 to 70 µM (≈ 29.4 to 51.4 µg/mL)
MIC ([6]; Spiroplasma melliferum, KC3, read-out: MIC, minimal inhibitory concentration): 40 to 70 µM (≈ 29.4 to 51.4 µg/mL)
Solubility [7]: water solubility
IC50 [8]: 6.3 ± 1 µM
IC50 [9]: 5.9 ± 0.9 µM
IC50 [10]: 6.3 ± 1.2 µM
Decrease of the IC50 value as compared to wild type HUSpm ([11]; HUSpm_K35T vs wild type, DS24a): about threefold decrease
IC50 ([11]; read-out: IC50 against HUSpm mutant HUSpm_K35T, EMSA with DS24a, mean ± SD from three runs, 30 nM protein): 1.8 ± 0.3 µM

AGTCTAGAGTGCAGTTGAGTCCTTGCTACGACGGATCCCTTAGGTCAG / CTGACCTAAGGGATCCGTCGTAGCAAGAAAAAAAGACTCAACTGCACTCTAGACT [A7 bulge (A7)]
Kd [3]: 0.002 µM

AGTCTAGAGTGCAGTTGAGTCCTTGCTACGACGGATCCCTTAGGTCAG / AAGGACTCAACTGCACTCTAGACT / CTGACCTAAGGGATCCGTCGTAG [Nick (N)]
Kd [3]: 0.0052 µM

AGTCTAGAGTGCAAGTTGAGTCCTT / AAGGACTCAACTGCACTCTAGACT [DS24a (24a)]
Kd [3]: 0.0026 µM

AGTCTAGAGTGCAGTTGAGTCCTTGCTACGACGGATCCCTTAGGTCAG (double strand) [DS48 (48)]
Kd [3]: 0.0186 µM

CSCCC(NS(=O)(=O)c1ccc2c(c1)C(=O)c1cc(S(=O)(=O)NC(CCSC)C(=O)O)ccc1-2)C(=O)O (stereo not shown) [compound 3]
IC50 [1, 15]: > 100 µM

O=C(O)c1cccc(C(=O)Oc2ccc(C3(c4ccc(OC(=O)c5cccc(C(=O)O)c5)cc4)c4ccccc4-c4ccccc43)cc2)c1 [BDF6, 3.3′-[4.4′-(9H-fluorene-9.9-diyl)-bis(4.1-phenylene)]-bis(oxy)-bis(oxomethylene)-dibenzoic acid]
IC50 ([1]; IC50, half-maximal inhibitory concentration of HUSpm-DNA complex formation, EMSA with DS24a duplex, average±SD from three runs): 8.2 ± 1.1 µM
IC50 ([1]; IC50 given in figure, HUSpm-DNA binding, DS24a, representative result of one independent assay): 8.7 µM
IC50 ([2]; DS24a, representative result of one independent assay, read-out: IC50 given in figure, HUMgal DNA binding): 8.2 µM
IC50 [2, 14]: 8.1 ± 1 µM
IC50 ([12]; IC50, inhibition of HUEc DNA-binding, EMSA with DS24a, average ± SD from three runs): 10 ± 1.3 µM
IC50 ([12]; IC50 given in figure, HUEc DNA binding, DS24a, representative result of one independent assay): 9.5 µM
MIC, minimal inhibitory concentration [5]: worst MIC
MIC, minimal inhibitory concentration [6]: worst MIC
Solubility [7]: limited solubility
